The text below walks through data of PubChem BioAssay AID200 (DTP/NCI, 2004).

The test system of the test is B6C3F1 mice, B16 melanoma ip, median survival T/C. Put plainly: NCI In Vivo Anticancer Drug Screen. Data for tumor model B16 Melanoma (intraperitoneal) in B6C3F1 mice. As to conditions: endpoint: median survival time, schedule: Q01DX009 (ip), higher = longer survival. In outline:
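Tumor-bearing mice received test compound; a separate group got vehicle only. Survival was then compared, with results reported as treated over control.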

The mark [1] stands for this setting: dose: 50.0 mg/kg/injection, vehicle: saline.
Setting [2] is: dose: 100.0 mg/kg/injection, vehicle: saline.
The mark [3] stands for this setting: dose: 200.0 mg/kg/injection, vehicle: saline.
Where [4] appears, read: dose: 400.0 mg/kg/injection, vehicle: saline.
[5] abbreviates: dose: 12.5 mg/kg/injection, vehicle: saline.
Setting [6] is: dose: 50.0 mg/kg/injection, vehicle: saline with Tween-80.
[7] abbreviates: dose: 100.0 mg/kg/injection, vehicle: saline with Tween-80.
Where [8] appears, read: dose: 12.5 mg/kg/injection, vehicle: saline with Tween-80.
Setting [9] is: dose: 25.0 mg/kg/injection, vehicle: saline with Tween-80.
The mark [10] stands for this setting: dose: 100.0 mg/kg/injection, vehicle: Klucel (hydroxypropylcellulose) (HPC).
[11] abbreviates: dose: 200.0 mg/kg/injection, vehicle: Klucel (hydroxypropylcellulose) (HPC).
Where [12] appears, read: dose: 400.0 mg/kg/injection, vehicle: Klucel (hydroxypropylcellulose) (HPC).

Values joined by “and” are separate entries in the source; they are usually repeats but may differ in a detail not shown here. Identical values can stand only once. Toxic doses and inconclusive results are not listed. Where a SMILES comes first, the peptide text is derived from it.

On to `CCCn1cc2c3c(cccc31)C1C=C(C)CN(C)C1C2` (stereo not given), for which the T/C is, setting by setting: (dose: 6.25 mg/kg/injection, vehicle: other) 118 % of control; (dose: 12.5 mg/kg/injection, vehicle: other) 306 % of control; (dose: 25.0 mg/kg/injection, vehicle: other) 91 % of control.
Take `O=C(O)C1CC(O)CN1` (stereo not given): the T/C reads like this: under setting [1], 101 % of control; under setting [2], 101 % of control; under setting [3], 96 % of control; under setting [4], 106 % of control; (dose: 800.0 mg/kg/injection, vehicle: saline) 108 % of control.
Consider `Cc1ncc(O)c(CO)c1O`, for which the T/C (dose: 0.78 mg/kg/injection, vehicle: saline) is 102 % of control; the T/C (dose: 1.56 mg/kg/injection, vehicle: saline) was 102 % of control; the T/C (dose: 3.13 mg/kg/injection, vehicle: saline) is 99 % of control; the T/C (dose: 6.25 mg/kg/injection, vehicle: saline) is 105 % of control; the T/C under setting [5] is 101 % of control; the T/C (dose: 25.0 mg/kg/injection, vehicle: saline) was 91 % of control. Further, the T/C under setting [1] is 96 % of control.
Turning to `CC(C)(C)OC(=O)NC(CCC(=O)O)C(=O)O` (stereo not given), the T/C by setting is: under setting [2], 107 % of control; under setting [3], 107 % of control; under setting [4], 94 % of control.
As for `CCOc1ncc([N+](=O)[O-])c(OCC)n1`, the T/C reads like this: under setting [6], 89 % of control and 106 % of control; under setting [7], 103 % of control; (dose: 200.0 mg/kg/injection, vehicle: saline with Tween-80) 91 % of control and 96 % of control.
Take `CC1(C)N=C(N)N=C(N)N1c1ccc(F)c(C(F)(F)F)c1`: the T/C is 93 % of control (dose: 0.37 mg/kg/injection, vehicle: saline); 96 % of control (dose: 0.75 mg/kg/injection, vehicle: saline); 94 % of control (dose: 1.5 mg/kg/injection, vehicle: saline); 99 % of control (dose: 3.0 mg/kg/injection, vehicle: saline); 106 % of control (dose: 6.0 mg/kg/injection, vehicle: saline); 113 % of control (dose: 12.0 mg/kg/injection, vehicle: saline). Besides, the T/C under setting [5] is 120 % of control.
As for `Nc1ccc(S(=O)(=O)Nc2cnc3c(Cl)cccc3n2)cc1`, the T/C is, setting by setting: (dose: 50.0 mg/kg/injection, vehicle: DMSO) 97 % of control; (dose: 100.0 mg/kg/injection, vehicle: DMSO) 100 % of control; (dose: 200.0 mg/kg/injection, vehicle: DMSO) 116 % of control; (dose: 400.0 mg/kg/injection, vehicle: DMSO) 105 % of control.
For `O=C(NC(=S)Nc1ccccc1)c1ccccc1`, the T/C was 99 % of control (dose: 9.4 mg/kg/injection, vehicle: Klucel (hydroxypropylcellulose) (HPC)); 94 % of control (dose: 18.75 mg/kg/injection, vehicle: Klucel (hydroxypropylcellulose) (HPC)); 101 % of control (dose: 37.5 mg/kg/injection, vehicle: Klucel (hydroxypropylcellulose) (HPC)); 103 % of control (dose: 75.0 mg/kg/injection, vehicle: Klucel (hydroxypropylcellulose) (HPC)).
On to `C[Si](C)(CCl)N[Si](C)(C)CCl`, for which the T/C by setting is: under setting [8], 100 % of control; under setting [9], 104 % of control; under setting [6], 99 % of control; under setting [7], 96 % of control.
For the compound `CCOC(=O)Nc1cc2c(c(N)n1)N=C(c1ccc(Cl)cc1Cl)CN2`, the T/C is 113 % of control and 119 % of control (dose: 1.5 mg/kg/injection, vehicle: saline with Tween-80); 115 % of control (dose: 3.0 mg/kg/injection, vehicle: saline with Tween-80); 115 % of control (dose: 6.0 mg/kg/injection, vehicle: saline with Tween-80); 155 % of control under setting [8].
For the compound `CN1CCN(CN2C(=O)C3C4C=CC(C3C2=O)C2C3C(=O)N(CN5CCN(C)CC5)C(=O)C3C42)CC1` (stereo not given), the T/C reads like this: (dose: 16.1 mg/kg/injection, vehicle: water) 103 % of control; (dose: 21.6 mg/kg/injection, vehicle: water) 104 % of control; (dose: 26.8 mg/kg/injection, vehicle: water) 98 % of control; (dose: 36.0 mg/kg/injection, vehicle: water) 102 % of control; (dose: 44.7 mg/kg/injection, vehicle: water) 107 % of control; (dose: 60.0 mg/kg/injection, vehicle: water) 104 % of control. Moreover, the T/C by setting is: (dose: 74.5 mg/kg/injection, vehicle: water) 103 % of control; (dose: 100.0 mg/kg/injection, vehicle: water) 120 % of control.
Regarding `CC(C)NC(=O)OCc1c(COC(=O)NC(C)C)c(-c2ccc(Cl)c(Cl)c2)n2c1CC(OC(=O)CN(C)C)C2` (stereo not given), the T/C (dose: 10.0 mg/kg/injection, vehicle: distilled water + Tween-80) was 152 % of control and 153 % of control; the T/C (dose: 20.0 mg/kg/injection, vehicle: distilled water + Tween-80) was 152 % of control and 168 % of control; the T/C (dose: 40.0 mg/kg/injection, vehicle: distilled water + Tween-80) is 174 % of control and 190 % of control.
On to `Cn1cc(NC(=O)c2cc(NC(=O)c3cc(NC=O)cn3C)cn2C)cc1C(=O)NCCC(=N)N`, for which the T/C (dose: 6.25 mg/kg/injection, vehicle: water) was 99 % of control and 101 % of control and 105 % of control.
For `O=C1c2ccccc2CCC1Br` (stereo not given), the T/C runs as follows: (dose: 1.5 mg/kg/injection, vehicle: DMSO) 87 % of control; (dose: 3.0 mg/kg/injection, vehicle: DMSO) 86 % of control and 87 % of control; (dose: 6.0 mg/kg/injection, vehicle: DMSO) 91 % of control; (dose: 12.0 mg/kg/injection, vehicle: DMSO) 94 % of control.
Take `CN(CC(=O)O)C(=O)CNC(=O)CNC(=O)OCc1ccccc1` (HELM PEPTIDE1{[O=C(OCc1ccccc1)[*:2]].G.G.[Sar]}$$$$V2.0): the T/C runs as follows: under setting [10], 104 % of control; under setting [11], 107 % of control; under setting [12], 98 % of control.
Regarding `C=C(NC(=O)C(=C)NC(=O)c1csc(C2=NC3c4csc(n4)C4NC(=O)c5csc(n5)C(C(C)(O)C(C)O)NC(=O)C5CSC(=N5)/C(=C/C)NC(=O)C(C(C)O)NC(=O)c5csc(n5)C3(CC2)NC(=O)C(C)NC(=O)C(=C)NC(=O)C(C)NC(=O)C(C(C)CC)NC2C=Cc3c(C(C)O)cc(nc3C2O)C(=O)OC4C)n1)C(N)=O` (stereo not given), the T/C runs as follows: (dose: 12.5 mg/kg/injection, vehicle: Klucel (hydroxypropylcellulose) (HPC)) 116 % of control; (dose: 25.0 mg/kg/injection, vehicle: Klucel (hydroxypropylcellulose) (HPC)) 104 % of control; (dose: 50.0 mg/kg/injection, vehicle: Klucel (hydroxypropylcellulose) (HPC)) 105 % of control; under setting [10], 107 % of control; under setting [11], 96 % of control; under setting [12], 99 % of control.
As to `CSc1ccc2c(c1)C(N1CCN(C)CC1)Cc1ccccc1S2` (stereo not given), the T/C is, setting by setting: (dose: 1.56 mg/kg/injection, vehicle: saline with Tween-80) 105 % of control; (dose: 3.12 mg/kg/injection, vehicle: saline with Tween-80) 108 % of control; (dose: 6.25 mg/kg/injection, vehicle: saline with Tween-80) 105 % of control; under setting [8], 98 % of control; under setting [9], 94 % of control; under setting [6], 88 % of control.
